Measured values: patent US10294202B2, “Pyrrolidinones as herbicides” (FMC Corporation, priority 2013, dated 2019)

Experiments:
velvetleaf = experiment: Test A pre-/postemergence herbicide test; type: in vivo, Abutilon theophrasti
In short: (§1)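 Seeds in loam–sand blend received preemergence directed soil spray; separately, plants 2–10 cm at one- to two-leaf stage received postemergence spray, both with test chemicals in non-phytotoxic solvent with surfactant. After ~10 days in greenhouse, injury rated visually against untreated controls, 0 (no effect) to 100 (complete control).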

chickweed = experiment: Test C postemergence herbicide test; type: in vivo, Stellaria media
From the text: At the same time, plants selected from these crop and weed species and also barley (winter barley, Hordeum vulgare), […]), chickweed (common chickweed, Stellaria media), deadnettle (henbit deadnettle, Lamium amplexicaule), and canarygrass (littleseed canarygrass, Phalaris minor) were planted in pots containing Redi-Earth® planting medium (Scotts Company, 14111 Scottslawn Road, Marysville, Ohio 43041) comprising spaghnum peat moss, vermiculite, wetting agent and starter nutrients and treated with postemergence applications of test chemicals formulated in the same manner. Plants ranged in height from 2 to 18 cm (1- to 4-leaf stage) for postemergence treatments. Treated plants and controls were maintained in a greenhouse for 13 to 15 days, after which time all species were compared to controls and visually evaluated. Plant response ratings, summarized in Table C, are based on a scale of 0 to 100 where 0 is no effect and 100 is complete control. A dash (-) response means no test result.

kochia = experiment: Test C pre-/postemergence herbicide test; type: in vivo, Kochia scoparia
From the text: Seeds of plant species selected from blackgrass (Alopecurus myosuroides), ryegrass, Italian (Italian ryegrass, Lolium multiflorum), wheat (winter wheat, Triticum aestivum), galium (catchweed bedstraw, Galium aparine), corn (Zea mays), crabgrass, large (large crabgrass, Digitaria sanguinalis), foxtail, giant (giant foxtail, Setaria faberii), johnsongrass (Sorghum halepense), lambsquarters (Chenopodium album), morningglory (Ipomoea coccinea), nutsedge, yellow (yellow nutsedge, Cyperus esculentus), pigweed (Amaranthus retroflexus), ragweed (common ragweed, Ambrosia elatior), soybean (Glycine max), barnyardgrass (Echinochloa crus-galli), oilseed rape (Brassica napus), waterhemp (common waterhemp, Amaranthus rudis), kochia (Kochia scoparia), oat, wild (wild oat, Avena fatua), surinam grass (Brachiaria decumbens), foxtail, green (green foxtail, Setaria viridis), goosegrass (Eleusine indica), bromegrass, downy (downy bromegrass, Bromus tectorum), nightshade (eastern black nightshade, Solanum ptycanthum), cocklebur (common cocklebur, Xanthium strumarium), cupgrass, woolly (woolly cupgrass, Eriochloa villosa), bermudagrass (Cynodon dactylon), sunflower, (common oilseed sunflower, Helianthus annuus), Russian thistle (Salsola kali) and velvetleaf (Abutilon theophrasti) were planted into a blend of loam soil and sand and treated preemergence with test chemicals formulated in a non-phytotoxic solvent mixture which included a surfactant. At the same time, plants selected from these crop and weed species and also barley (winter barley, Hordeum vulgare), […]), chickweed (common chickweed, Stellaria media), deadnettle (henbit deadnettle, Lamium amplexicaule), and canarygrass (littleseed canarygrass, Phalaris minor) were planted in pots containing Redi-Earth® planting medium (Scotts Company, 14111 Scottslawn Road, Marysville, Ohio 43041) comprising spaghnum peat moss, vermiculite, wetting agent and starter nutrients and treated with postemergence applications of test chemicals formulated in the same manner. Plants ranged in height from 2 to 18 cm (1- to 4-leaf stage) for postemergence treatments. Treated plants and controls were maintained in a greenhouse for 13 to 15 days, after which time all species were compared to controls and visually evaluated. Plant response ratings, summarized in Table C, are based on a scale of 0 to 100 where 0 is no effect and 100 is complete control. A dash (-) response means no test result.

morningglory = experiment: Test A pre-/postemergence herbicide test; type: in vivo, Ipomoea spp.
In short: as §1

crabgrass, large = experiment: Test A pre-/postemergence herbicide test; type: in vivo, Digitaria sanguinalis
In short: as §1

ryegrass, Italian = experiment: Test A pre-/postemergence herbicide test; type: in vivo, Lolium multiflorum
In short: as §1

[1] = Postemergence, 1000 g ai/ha, 0 to 100 scale (0 no effect, 100 complete control)
[2] = Preemergence, 1000 g ai/ha, visual rating on 0 to 100 scale (0 no effect, 100 complete control), approx. 10 days
[3] = 31 g ai/ha, scale 0 (no effect) to 100 (complete control)
[4] = 62 g ai/ha, scale 0 to 100 (0 no effect, 100 complete control)
[5] = 125 g ai/ha, scale 0 to 100 (0 no effect, 100 complete control)
[6] = 250 g ai/ha, scale 0 to 100 (0 no effect, 100 complete control)
[7] = Postemergence, 31 g ai/ha, scale 0 (no effect) to 100 (complete control)
[8] = Postemergence, 62 g ai/ha, scale 0 to 100 (0 no effect, 100 complete control)
[9] = Postemergence, 125 g ai/ha, scale 0 to 100 (0 no effect, 100 complete control)
[10] = Postemergence, 250 g ai/ha, scale 0 to 100 (0 no effect, 100 complete control)
[11] = Postemergence, 125 g ai/ha, 0 to 100 scale, 0 no effect, 100 complete control
[12] = Postemergence, 500 g ai/ha, 0 to 100 scale (0 no effect, 100 complete control)
[13] = Preemergence, 125 g ai/ha, visual rating on 0 to 100 scale (0 no effect, 100 complete control)
[14] = preemergence, 500 g ai/ha, 0 to 100 scale
[15] = Postemergence, 125 g ai/ha, visual rating on 0 to 100 scale (0 no effect, 100 complete control), approx. 10 days
[16] = Preemergence, 125 g ai/ha, 0 to 100 scale where 0 is no effect and 100 is complete control
[17] = preemergence, 500 g ai/ha, 0 to 100 scale, 0 is no effect and 100 is complete control
[18] = 31 g ai/ha, scale 0 to 100 (0 no effect, 100 complete control)
[19] = 62 g ai/ha, scale 0 (no effect) to 100 (complete control)
[20] = Postemergence, 31 g ai/ha, scale 0 to 100 (0 no effect, 100 complete control)
[21] = Postemergence, 62 g ai/ha, scale 0 (no effect) to 100 (complete control)
[22] = Preemergence, 500 g ai/ha, visual rating on 0 to 100 scale (0 no effect, 100 complete control)

## O=C1NCC(c2cc(F)c(F)c(F)c2)C1C(=O)Nc1ccccc1F (racemic) [Compound 34]
velvetleaf; [1]
  Plant response rating, Velvetleaf: 20
velvetleaf; [2]
  Plant response rating, Velvetleaf: 0
chickweed; [3]
  Plant response rating, Chickweed: 0
chickweed; [4]
  Plant response rating, Chickweed: 0
chickweed; [5]
  Plant response rating, Chickweed: 5
chickweed; [6]
  Plant response rating, Chickweed: 5
kochia; [7]
  Plant response rating, Kochia: 5
kochia; [8]
  Plant response rating, Kochia: 5
kochia; [9]
  Plant response rating, Kochia: 5
kochia; [10]
  Plant response rating, Kochia: 5
kochia; Preemergence, 62 g ai/ha, scale 0 to 100
  Plant response rating, Kochia: 0
kochia; Preemergence, 125 g ai/ha, scale 0 to 100 (0 no effect, 100 complete control)
  Plant response rating, Kochia: 0
morningglory; [1]
  Plant response rating, Morningglory: 20
crabgrass, large; [1]
  Plant response rating, Crabgrass, Large: 90
crabgrass, large; [2]
  Plant response rating, Crabgrass, Large: 90

## O=C1NCC(c2ccc(F)c(C(F)(F)F)c2)C1C(=O)Nc1ccccc1F (racemic) [Compound 76]
velvetleaf; [11]
  Plant response rating, Velvetleaf: 20
velvetleaf; [12]
  Plant response rating, Velvetleaf: 60
velvetleaf; [13]
  Velvetleaf plant response rating: 0
velvetleaf; [14]
  Plant response rating, Velvetleaf: 0
chickweed; [3]
  Plant response rating, Chickweed: 40
chickweed; [4]
  Plant response rating, Chickweed: 40
chickweed; [5]
  Plant response rating, Chickweed: 65
chickweed; [6]
  Plant response rating, Chickweed: 80
kochia; [7]
  Plant response rating, Kochia: 40
kochia; [8]
  Plant response rating, Kochia: 50
kochia; [9]
  Plant response rating, Kochia: 50
kochia; [10]
  Plant response rating, Kochia: 65
morningglory; [11]
  Plant response rating, Morningglory: 20
morningglory; [12]
  Plant response rating, Morningglory: 40
morningglory; [13]
  Morningglory plant response rating: 0
morningglory; [14]
  Plant response rating, Morningglory: 50
crabgrass, large; [11]
  Plant response rating, Crabgrass, Large: 90
crabgrass, large; [12]
  Plant response rating, Crabgrass, Large: 90
crabgrass, large; [13]
  Crabgrass, Large plant response rating: 90
crabgrass, large; [14]
  Plant response rating, Crabgrass, Large: 90

## O=C1NCC(c2cc(F)cc(F)c2)C1C(=O)Nc1ccc(F)cc1F (racemic) [Compound 278]
ryegrass, Italian; [15]
  Plant response rating, Ryegrass, Italian: 0
ryegrass, Italian; [12]
  Plant response rating, Ryegrass, Italian: 0
ryegrass, Italian; [16]
  Plant response rating, Ryegrass, Italian: 0
ryegrass, Italian; [17]
  Plant response rating, Ryegrass, Italian: 0
chickweed; [18]
  Plant response rating, Chickweed: 0
chickweed; [19]
  Plant response rating, Chickweed: 0
chickweed; [5]
  Plant response rating, Chickweed: 0
chickweed; [6]
  Plant response rating, Chickweed: 0
kochia; [20]
  Plant response rating, Kochia: 0
kochia; [21]
  Plant response rating, Kochia: 0
kochia; [9]
  Plant response rating, Kochia: 0
kochia; [10]
  Plant response rating, Kochia: 5

## O=C1NCC(c2cc(F)cc(F)c2)C1C(=O)Nc1cccc(F)c1F (racemic) [Compound 279]
ryegrass, Italian; [15]
  Plant response rating, Ryegrass, Italian: 0
ryegrass, Italian; [12]
  Plant response rating, Ryegrass, Italian: 0
ryegrass, Italian; [16]
  Plant response rating, Ryegrass, Italian: 0
ryegrass, Italian; [17]
  Plant response rating, Ryegrass, Italian: 60
chickweed; [18]
  Plant response rating, Chickweed: 5
chickweed; [19]
  Plant response rating, Chickweed: 75
chickweed; [5]
  Plant response rating, Chickweed: 30
chickweed; [6]
  Plant response rating, Chickweed: 5
kochia; [20]
  Plant response rating, Kochia: 0
kochia; [21]
  Plant response rating, Kochia: 30
kochia; [9]
  Plant response rating, Kochia: 85
kochia; [10]
  Plant response rating, Kochia: 35

## CN1CC(c2ccc(F)c(F)c2)C(C(=O)Nc2ccccc2F)C1=O (stereo not shown) [Compound 302]
ryegrass, Italian; [15]
  Plant response rating, Ryegrass, Italian: 0
ryegrass, Italian; [12]
  Plant response rating, Ryegrass, Italian: 60
ryegrass, Italian; [16]
  Plant response rating, Ryegrass, Italian: 0
ryegrass, Italian; [22]
  Ryegrass, Italian plant response rating: 60
chickweed; [18]
  Plant response rating, Chickweed: 0
chickweed; [19]
  Plant response rating, Chickweed: 0
chickweed; [5]
  Plant response rating, Chickweed: 5
chickweed; [6]
  Plant response rating, Chickweed: 70
kochia; [20]
  Plant response rating, Kochia: 0
kochia; [21]
  Plant response rating, Kochia: 0
kochia; [9]
  Plant response rating, Kochia: 0
kochia; [10]
  Plant response rating, Kochia: 60

## O=C1NCC(c2cccc(Br)c2)C1C(=O)Nc1cccc(F)c1F (stereo not shown) [Compound 309]
ryegrass, Italian; [15]
  Plant response rating, Ryegrass, Italian: 10
ryegrass, Italian; [12]
  Plant response rating, Ryegrass, Italian: 30
ryegrass, Italian; [16]
  Plant response rating, Ryegrass, Italian: 0
ryegrass, Italian; [22]
  Ryegrass, Italian plant response rating: 20
chickweed; [18]
  Plant response rating, Chickweed: 30
chickweed; [19]
  Plant response rating, Chickweed: 50
chickweed; [5]
  Plant response rating, Chickweed: 65
chickweed; [6]
  Plant response rating, Chickweed: 70
kochia; [20]
  Plant response rating, Kochia: 5
kochia; [21]
  Plant response rating, Kochia: 5
kochia; [10]
  Plant response rating, Kochia: 75
